In article PMC4021065, “A novel, non-radioactive eukaryotic in vitro transcription assay for sensitive quantification of RNA polymerase II activity” (BMC Molecular Biology, 2014):
Like-named read-outs stand apart in the source and are kept apart here.

How the values were obtained:
[1] = target: T1, RNA polymerase II (Homo sapiens, UniProt P24928); test: In vitro transcription with primer extension and qPCR (EGFP-LNA1 probe) detection, pEGFP-N1 / CMV-EGFP templates; assay type: biochemical
T1 construct: a well-defined nuclear extract providing the RNA polymerase II and a basal set of transcription factors; purchased Promega; host or cells: HeLa cell nuclear extract (endogenous enzyme)
Procedure: (§1) Transcription reactions were set up as using the Promega HeLaScribe Nuclear Extract in vitro Transcription System were set up as described by the manufacturer with some modifications. The reaction volume was doubled to 50 μl. A master mix was prepared from a volume transcription buffer (20 mM HEPES, pH 7.9, 100 mM KCl, 0.2 mM EDTA, 0.5 mM DTT, 20% glycerol) corresponding to 22 μl minus the nuclear extract volume, MgCl2 to a final concentration of 3 mM, 40 Units RNase inhibitor, DNA template (1 μg pEGFP-N1 plasmid or 150 ng linear DNA fragment CMV-EGFP, respectively) and the nuclear extract following the manufacturer’s recipe. Aliquots of the master mix were transferred into reaction tubes containing different α-amanitin concentrations or water and incubated for 20 min at room temperature. Standard transcription reactions containing no α-amanitin were referred as ‘positive’, reactions containing α-amanitin or other inhibitors as ’inhibited’. A standard reaction containing no α-amanitin/inhibitors but also no NTPs was used as a ‘negative control transcription’. The reactions were started by the addition of the NTP mix to a final concentration of 400 μM each, except for the negative control where water was added. After incubating for 30 min at 30°C, the reactions were stopped by diluting with 400 μl of the RLT buffer from the Qiagen RNeasy Micro kit and stored at −80°C until proceeding with RNeasy cleanup. This was performed as recommended by the manufacturer, including on-column DNase treatment but without the addition of carrier RNA. The RNA was eluted using 15 μl water and stored at −80°C.
The purified RNA was once more DNase-treated using the Epicentre BaselineZero DNase kit as recommended by the manufacturer, 8.8 μl of the RNA being digested in a final volume of 10 μl. As a second negative control, 50 ng of the linear DNA fragment CMV-EGFP were directly DNase-digested and further processed as the RNA samples (‘DNase control’). For reverse transcription with the Qiagen Sensiscript RT kit, 2 μl of the digestion reaction and 1 μM EGFPrev1 primer (Table 1) were used in a final reaction volume of 20 μl. After reaction, 1 μl of the reverse transcription mix was transferred to PCR tubes containing 24 μl PCR mix aliquots. The standard PCR amplification was performed using the Epicentre Failsafe PCR system with the Mix A and the EGFPrev1 and EGFPfrw1 (Table 1) primer mix. Positive PCR control reactions contained 50 ng pEGFP-N1 plasmid; negative PCR controls contained no DNA. After amplification, the products were analyzed by gel electrophoresis onto 1.5% agarose.
For quantitation using SYBR detection, the Qiagen QuantiFast SYBR green qPCR kit was used. 1 μl of the reverse transcription mix was amplified in 25 μl reaction mix containing 500 nM of each EGFP-rev1 and EGFP-frw1 primer. For quantitation using the sequence-specific LNA probe EGFP-LNA1 at 250 nM, same primer set as well as an alternative primer set (EGFPfrw2 and EGFPrew2, Table 1) at 500 nM each and Sigma Jumpstart Taq ReadyMix for qPCR were used. 2 μl of the reverse transcription reaction were diluted into qPCR reactions with a final volume of 20 μl and qPCR performed in a Bio-Rad DNAEngine lightcycler. A qPCR standard curve was prepared from the CMV-EGFP DNA fragment and used for RNA copy number calculations. The amount of RNA in the inhibited probes was related to the RNA amount detected for the positive transcription reaction.

[2] = target: T1, RNA polymerase II; test: biochemical; settings: for IC50: QuantiGene, read-out: IC50 (RNA synthesis)
[3] = target: T1, RNA polymerase II; assay type: biochemical; settings: for IC50: qPCR, read-out: IC50 (RNA synthesis)
[4] = target: T1, RNA polymerase II; test: In vitro transcription (HeLaScribe nuclear extract) with primer extension and PCR gel detection; assay type: biochemical
Procedure: as §1, with “The reactions were started by the addition of the NTP mix to a final concentration of 400 μM each, except for the negative control where water was added. After incubating for 30 min at 30°C, the reactions were stopped by diluting with 400 μl of the RLT buffer from the Qiagen RNeasy Micro kit and stored at −80°C until proceeding with RNeasy cleanup. This was performed as recommended by the manufacturer, including on-column DNase treatment but without the addition of carrier RNA. The RNA was eluted using 15 μl water and stored at −80°C.” left out
The purified RNA was once more DNase-treated using the Epicentre BaselineZero DNase kit as recommended by the manufacturer, 8.8 μl of the RNA being digested in a final volume of 10 μl. […] After amplification, the products were analyzed by gel electrophoresis onto 1.5% agarose.

[5] = tested on: RNA polymerase II; settings: cited from earlier work
[6] = 200 nM, template HS-DNA_mut (TATA box mutated)

For `CC[C@H](C)[C@@H]1NC(=O)CNC(=O)[C@@H]2Cc3c([nH]c4cc(O)ccc34)[S@+]([O-])C[C@H](NC(=O)CNC1=O)C(=O)N[C@@H](CC(N)=O)C(=O)N1C[C@H](O)C[C@H]1C(=O)N[C@@H]([C@@H](C)[C@@H](O)CO)C(=O)N2` [α-amanitin], which “qPCR C(T) value of inhibited transcription” value ([1]; linear CMV-EGFP template, 2 μM, uninhibited C(T) 16.1, Figure 3B) is on record?
The value was 24.5.

What about the “qPCR C(T) value of inhibited transcription” value ([1]; linear CMV-EGFP template, 20 μM, uninhibited C(T) 16.1, Figure 3B) of the same compound?
The value was 28.1.

What about the “qPCR C(T) value of inhibited transcription” value ([1]; linear CMV-EGFP template, 50 μM, uninhibited C(T) 16.1, Figure 3B) of the same compound?
Its value is 37.0.

What about the “qPCR C(T) value of inhibited transcription” value ([1]; linear CMV-EGFP template, 100 μM, uninhibited C(T) 16.1, Figure 3B, C) of the same compound?
The value was 27.9.

What about the “qPCR C(T) value of inhibited transcription” value ([1]; pEGFP-N1 plasmid template, 100 μM, uninhibited C(T) 17.6 / 18.0, Figure 3A, C) of the same compound?
The value was 21.7.

And the “inhibition of transcription efficacy” value ([2]; 200 nM, both templates (standard HS-DNA and TATA box mutant))?
Its value is 88 ± 1%.

And the “% RNA synthesis (compared to respective positive control)” value [2, 6]?
The value was 12% ± 1%.

What about the “Signal (RLU average)” value [2, 6] of the same compound?
The value was 130255 RLU.

And the “% RNA synthesis (compared to respective positive control)” value ([2]; 200 nM, template HS-DNA_std)?
The value was 12% ± 1%.

And the “Signal (RLU average)” value ([2]; 200 nM, template HS-DNA_std)?
The value was 161585 RLU.

What about the IC50 ([2]; Bead-HS-DNA template, Figure 5C) of the same compound?
Its IC50 is 5700 nM.

What about the IC50 ([2]; HS-DNA_long template, 10 min at 30°C, Figure 6C) of the same compound?
Its IC50 is 54 nM.

What about the IC50 ([2]; standard HS-DNA template, 30 min at 30°C, Figure 6A) of the same compound?
Its IC50 is 4 nM.

And the “inhibitory effect, short incubation vs standard (times lower)” value ([3]; 10 min, HS-DNA_long vs 30 min, standard template)?
The value was “ca. 10 ×”.

And the “inhibitory effect on transcription (PCR product on gel)” value ([4]; linear CMV-EGFP template, 400, 100 and 20 μM, Figure 2B)?
Its value is “gradually increasing inhibitory effects”.

And the “amount of PCR product after transcription” value ([4]; pEGFP-N1 plasmid template, 100 μM, Figure 2A)?
The value was “clearly diminished amount of PCR product”.

Which IC50 ([3]; HS-DNA_long template, 10 min at 30°C, second set of reactions) does the source give for `CN1CC[C@H](c2c(O)cc(O)c3c(=O)cc(-c4ccccc4Cl)oc23)[C@H](O)C1` [flavopiridol] here?
The IC50 was 940 nM.

What about the IC50 ([3]; standard HS-DNA template, 30 min at 30°C, first set of reactions) of the same compound?
Its IC50 is > 125000 nM.

For `CCC(C)C1NC(=O)CNC(=O)C2Cc3c([nH]c4cc(OC)ccc34)[S+]([O-])CC(NC(=O)CNC1=O)C(=O)NC(CC(N)=O)C(=O)N1CC(O)CC1C(=O)NC(C(C)C(C)O)C(=O)N2` (stereo not shown) [6′–O-methyl-γ-amanitin], which “potency as RNA polymerase II inhibitor relative to α-amanitin (less potent)” value [5] is on record?
Its value is “about two-fold”.
